Results published in PubChem BioAssay AID248 (DTP/NCI, 2004).
“And” between values parts separate entries of the source, which are not always exact repeats. Equal values may be shown once. Inconclusive results and toxic doses are left out. Rule as the data show it: active = T/C of 150% or more; inactive = T/C below 125%.

System: L1210 leukemia ip in BDF1 mice, survival T/C
Test: NCI In Vivo Anticancer Drug Screen. Data for tumor model L1210 Leukemia (intraperitoneal) in B6D2F1 (BDF1) mice
Details: endpoint: mean survival time, higher = longer survival
Summary of the method: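 Read-out is survival time, reported as the treated-group measurement over the vehicle-control measurement.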

[1] = dose: 100.0 mg/kg/injection, schedule: Q01DX001 (ip), vehicle: saline
[2] = dose: 100.0 mg/kg/injection, schedule: Q01DX009 (ip), vehicle: saline
[3] = dose: 100.0 mg/kg/injection, schedule: Q04DX003 (ip), vehicle: saline
[4] = dose: 200.0 mg/kg/injection, schedule: Q01DX001 (ip), vehicle: saline
[5] = dose: 200.0 mg/kg/injection, schedule: Q01DX009 (ip), vehicle: saline
[6] = dose: 200.0 mg/kg/injection, schedule: Q04DX003 (ip), vehicle: saline
[7] = dose: 400.0 mg/kg/injection, schedule: Q01DX001 (ip), vehicle: saline
[8] = dose: 400.0 mg/kg/injection, schedule: Q01DX009 (ip), vehicle: saline
[9] = dose: 400.0 mg/kg/injection, schedule: Q04DX003 (ip), vehicle: saline
[10] = dose: 75.0 mg/kg/injection, schedule: Q01DX001 (ip), vehicle: carboxymethylcellulose (CMC)
[11] = dose: 100.0 mg/kg/injection, schedule: Q01DX009 (ip), vehicle: Klucel (hydroxypropylcellulose) (HPC)
[12] = dose: 200.0 mg/kg/injection, schedule: Q01DX009 (ip), vehicle: Klucel (hydroxypropylcellulose) (HPC)
[13] = dose: 400.0 mg/kg/injection, schedule: Q01DX009 (ip), vehicle: Klucel (hydroxypropylcellulose) (HPC)
[14] = dose: 100.0 mg/kg/injection, schedule: Q04DX003 (ip), vehicle: Klucel (hydroxypropylcellulose) (HPC)
[15] = dose: 200.0 mg/kg/injection, schedule: Q04DX003 (ip), vehicle: Klucel (hydroxypropylcellulose) (HPC)
[16] = dose: 400.0 mg/kg/injection, schedule: Q04DX003 (ip), vehicle: Klucel (hydroxypropylcellulose) (HPC)
[17] = dose: 100.0 mg/kg/injection, schedule: Q01DX009 (ip), vehicle: saline with Tween-80
[18] = dose: 200.0 mg/kg/injection, schedule: Q01DX009 (ip), vehicle: saline with Tween-80
[19] = dose: 100.0 mg/kg/injection, schedule: Q04DX003 (ip), vehicle: saline with Tween-80
[20] = dose: 100.0 mg/kg/injection, schedule: Q01DX001 (ip), vehicle: carboxymethylcellulose (CMC)
[21] = dose: 200.0 mg/kg/injection, schedule: Q01DX001 (ip), vehicle: carboxymethylcellulose (CMC)
[22] = dose: 400.0 mg/kg/injection, schedule: Q01DX001 (ip), vehicle: carboxymethylcellulose (CMC)
[23] = dose: 50.0 mg/kg/injection, schedule: Q01DX001 (ip), vehicle: carboxymethylcellulose (CMC)

Measured: T/C

N=C(N)CCc1ccccc1
inactive: dose: 75.0 mg/kg/injection, schedule: Q04DX003 (ip), vehicle: saline 99 % of control | dose: 150.0 mg/kg/injection, schedule: Q04DX003 (ip), vehicle: saline 98 % of control

Cc1cccc(OCCOC(=O)Nc2cccc(C(F)(F)F)c2)c1
inactive: [1] 104 % of control | [2] 100 % of control and 87 % of control | dose: 100.0 mg/kg/injection, schedule: Q04DX002 (ip), vehicle: saline 100 % of control and 101 % of control | [3] 101 % of control | [4] 106 % of control | [5] 92 % of control and 87 % of control | dose: 200.0 mg/kg/injection, schedule: Q04DX002 (ip), vehicle: saline 100 % of control and 105 % of control | [6] 106 % of control | [7] 109 % of control | [8] 94 % of control | dose: 400.0 mg/kg/injection, schedule: Q04DX002 (ip), vehicle: saline 92 % of control and 97 % of control | [9] 103 % of control

CC[S+](CC)CC
inactive: [3] 95 % of control | [6] 95 % of control

Cc1cccc(N2CCN(CC(O)COc3cccc4ccccc34)CC2)c1 (centres undefined)
inactive: [1] 95 % of control | [4] 98 % of control | [7] 95 % of control

COc1ccc2nc3cc(Cl)ccc3c(Nc3ccc(O)c(CNCCO)c3)c2c1
inactive: [10] 101 % of control

OC(CN1CCCC1)c1cc2cc(Br)ccc2s1 (centres undefined)
inactive: [1] 107 % of control

O=C(O)c1[nH]c(=O)[nH]c(=O)c1CN1CCCCC1
inactive: dose: 100.0 mg/kg/injection, schedule: Q01DX Z (ip), vehicle: methylcellulose (MC) 93 % of control | dose: 200.0 mg/kg/injection, schedule: Q01DX Z (ip), vehicle: methylcellulose (MC) 93 % of control

C(=N\Nc1nc2ccccc2s1)/c1ccc(/C=N/Nc2nc3ccccc3s2)cc1
inactive: [11] 96 % of control | [12] 96 % of control | [13] 104 % of control

CC(O)C(O)CC(/C=N/NC(=O)c1ccccc1)=N/NC(=O)c1ccccc1 (centres undefined)
inactive: [14] 107 % of control | [15] 115 % of control | [16] 109 % of control

CC(=O)Oc1c(OC(C)=O)c(-c2c(C)cc(C)c(Br)c2C)c(OC(C)=O)c(OC(C)=O)c1-c1c(C)cc(C)c(Br)c1C
inactive: [11] 103 % of control | [12] 97 % of control | [13] 103 % of control

O=C1CC(=O)N(c2ccccc2)C(=O)N1
inactive: dose: 50.0 mg/kg/injection, schedule: Q01DX009 (ip), vehicle: saline with Tween-80 99 % of control | [17] 99 % of control | [18] 99 % of control

C=CCc1cccc(O)c1O
inactive: dose: 12.5 mg/kg/injection, schedule: Q04DX002 (ip), vehicle: saline with Tween-80 108 % of control | dose: 25.0 mg/kg/injection, schedule: Q04DX002 (ip), vehicle: saline with Tween-80 96 % of control | dose: 50.0 mg/kg/injection, schedule: Q04DX002 (ip), vehicle: saline with Tween-80 108 % of control

ClC(Cl)C(Cl)(Cl)C(Cl)(Cl)Cl
inactive: dose: 50.0 mg/kg/injection, schedule: Q01DX009 (ip), vehicle: Klucel (hydroxypropylcellulose) (HPC) 96 % of control | [11] 94 % of control | [14] 95 % of control | [12] 98 % of control | [15] 108 % of control

CC1(C)N=C(N)N=C(N)N1c1cccc(CCCCc2c(Cl)cccc2Cl)c1
inactive: dose: 25.0 mg/kg/injection, schedule: Q01DX001 (ip), vehicle: saline 105 % of control | dose: 50.0 mg/kg/injection, schedule: Q01DX001 (ip), vehicle: saline 86 % of control | [1] 95 % of control

CS(=O)(=O)Oc1cccc(C2CS(=O)(=O)c3ccccc3N2)c1 (centres undefined)
inactive: dose: 100.0 mg/kg/injection, schedule: Q01DX001 (ip), vehicle: Klucel (hydroxypropylcellulose) (HPC) 101 % of control | [11] 104 % of control | [14] 97 % of control | dose: 200.0 mg/kg/injection, schedule: Q01DX001 (ip), vehicle: Klucel (hydroxypropylcellulose) (HPC) 106 % of control | [12] 101 % of control | [15] 97 % of control | dose: 400.0 mg/kg/injection, schedule: Q01DX001 (ip), vehicle: Klucel (hydroxypropylcellulose) (HPC) 103 % of control | [13] 101 % of control | [16] 94 % of control

CC(C)c1ccc(C(O)C2CC2)cc1 (centres undefined)
inactive: [19] 94 % of control

C=CN1CCCC1=O (tested in a mixture with another compound)
inactive: [1] 101 % of control [middle of 4 runs] | [17] 92 % of control and 97 % of control | [4] 101 % of control [middle of 4 runs] | [18] 93 % of control and 100 % of control | [7] 101 % of control and 89 % of control and 98 % of control | dose: 400.0 mg/kg/injection, schedule: Q01DX009 (ip), vehicle: saline with Tween-80 93 % of control and 96 % of control

CC(C)(Br)C(=O)C(Br)Br
inactive: [1] 106 % of control | [4] 102 % of control

O=S1(=O)N=C(Sc2ccccc2)c2ccccc21
inactive: dose: 100.0 mg/kg/injection, schedule: Q04DX002 (ip), vehicle: saline with Tween-80 102 % of control | dose: 200.0 mg/kg/injection, schedule: Q04DX002 (ip), vehicle: saline with Tween-80 98 % of control | dose: 400.0 mg/kg/injection, schedule: Q04DX002 (ip), vehicle: saline with Tween-80 98 % of control

O=C1c2cc(Br)ccc2-c2cc(Br)c(NC(=O)C(F)(F)F)c(Br)c21
inactive: [20] 92 % of control | [21] 108 % of control | [22] 99 % of control

O=S(=O)(O)CBr
inactive: [1] 107 % of control | [2] 91 % of control | [3] 100 % of control | [4] 106 % of control | [5] 96 % of control | [6] 100 % of control | [7] 109 % of control | [8] 98 % of control | [9] 106 % of control

[Br][Hg][c]1ccccc1
inactive: [10] 108 % of control

COc1ccc(Cl)cc1/C=C\C=N\NC(=O)C[N+](C)(C)C
inactive: dose: 15.0 mg/kg/injection, schedule: Q01DX001 (ip), vehicle: carboxymethylcellulose (CMC) 95 % of control | dose: 30.0 mg/kg/injection, schedule: Q01DX001 (ip), vehicle: carboxymethylcellulose (CMC) 93 % of control

COc1cc(N=Cc2ccc([N+](=O)[O-])cc2)c2ncccc2c1
inactive: [20] 101 % of control | [21] 94 % of control | [22] 92 % of control

CN(C)C(=O)NCc1cccnc1
inactive: dose: 100.0 mg/kg/injection, schedule: Q04DX013 (ip), vehicle: saline 100 % of control | dose: 200.0 mg/kg/injection, schedule: Q04DX013 (ip), vehicle: saline 94 % of control | dose: 400.0 mg/kg/injection, schedule: Q04DX013 (ip), vehicle: saline 101 % of control

O=C1CCC(=O)N1CCC(=O)N(C(=O)NC1CCCCC1)C1CCCCC1
inactive: dose: 50.0 mg/kg/injection, schedule: Q01DX009 (ip), vehicle: saline 98 % of control | [2] 95 % of control | [19] 100 % of control | [5] 101 % of control | dose: 200.0 mg/kg/injection, schedule: Q04DX003 (ip), vehicle: saline with Tween-80 106 % of control | [8] 98 % of control | dose: 400.0 mg/kg/injection, schedule: Q04DX003 (ip), vehicle: saline with Tween-80 100 % of control

COC(=O)C1(C)CCCC2(C)C3CCC4(C)CC3(CCO4)CCC12 (centres undefined)
inactive: dose: 200.0 mg/kg/injection, schedule: Q04DX002 (ip), vehicle: Klucel (hydroxypropylcellulose) (HPC) 87 % of control | dose: 400.0 mg/kg/injection, schedule: Q04DX002 (ip), vehicle: Klucel (hydroxypropylcellulose) (HPC) 95 % of control

CN1CCC=C(C(=O)O)C1
inactive: [23] 101 % of control | [20] 110 % of control | [21] 104 % of control

O=[N+]([O-])c1ccc(CCBr)cc1
inactive: [23] 96 % of control | [20] 94 % of control | [21] 100 % of control | [22] 105 % of control
